# Calls of active or inactive are those of the source. The rule behind the calls is not given here.
# Legend:
# [1] = Antioxidant activity assessed as DPPH radical scavenging activity measured after 30 mins by UV-vis spectrophotometry; assay type: functional
# [2] = system: HT-29; assay: Cytotoxicity against human HT-29 cells assessed as reduction in cell viability measured after 24 hrs by MTT assay; assay type: functional, cell-based
# [3] = system: SW-620; assay: Cytotoxicity against human SW620 cells assessed as cell viability at 20 uM measured after 24 hrs by MTT assay relative to control; assay type: functional; conditions: read-out: Activity
# [4] = system: SW-620; assay: Cytotoxicity against human SW620 cells assessed as reduction in cell viability measured after 24 hrs by MTT assay; assay type: functional, cell-based
# [5] = system: HT-29; assay: Cytotoxicity against human HT-29 cells assessed as cell viability at 20 uM measured after 24 hrs by MTT assay relative to control; assay type: functional; conditions: read-out: Activity
# [6] = Antioxidant activity assessed as DPPH radical scavenging activity at 10 ug/ml measured after 30 mins by UV-vis spectrophotometry relative to control; assay type: functional; conditions: dose 10.0 µg/ml
# [7] = Cytotoxicity against splenocytes (unknown origin) assessed as reduction in cell viability at 1.25 to 20 uM measured after 24 hrs by MTT assay; assay type: toxicity, cell-based; conditions: splenocyte, dose 1.25-20 µM
# [8] = Antioxidant activity assessed as DPPH radical scavenging activity up to 10 ug/ml measured after 30 mins by UV-vis spectrophotometry; assay type: functional; conditions: dose <= 10.0 µg/ml
smiles,measurement,setting,value
CC(=O)O[C@@H]1C=C2C([N+](=O)[O-])=C[C@H]3[C@@H]4CC[C@H]([C@H](C)CCCC(C)C)[C@@]4(C)CC[C@@H]3[C@@]2(C)CC1,IC50,[1],2.78 µg/mL
same,Activity,[2],Dose-dependent-effect
same,IC50,"[2]; HT-29, 24 h",11.5 µM
same,viability at 20 µM,[3],15.2%
same,Activity,[4],Dose-dependent-effect
same,IC50,"[4]; SW-620, 24 h",10 µM
same,viability at 20 µM,[5],10.8%
same,Activity,[6],86.2%
same,Activity,[7],Non-toxic
O=C1O[C@H]([C@@H](O)CO)C(O)=C1O,Activity,[8],Active
CCN(CC)[C@H]1C([N+](=O)[O-])=C2C=CCC[C@]2(C)[C@H]2CC[C@]3(C)[C@@H]([C@H](C)CCCC(C)C)CC[C@H]3[C@H]12,Activity,[6],64.8%
CN[C@H]1C([N+](=O)[O-])=C2C[C@@H](O)CC[C@]2(C)[C@H]2CC[C@]3(C)[C@@H]([C@H](C)CCCC(C)C)CC[C@H]3[C@H]12,Activity,[6],51.2%
CC(C)CCC[C@@H](C)[C@H]1CC[C@H]2[C@@H]3[C@@H](N(C)C)C([N+](=O)[O-])=C4C=CCC[C@]4(C)[C@H]3CC[C@]12C,IC50,[1],3.08 µg/mL
same,Activity,[6],80.6%
CN[C@H]1C([N+](=O)[O-])=C2C=C(Cl)CC[C@]2(C)[C@H]2CC[C@]3(C)[C@@H]([C@H](C)CCCC(C)C)CC[C@H]3[C@H]12,Activity,[6],66.5%
CN[C@H]1C([N+](=O)[O-])=C2C=CCC[C@]2(C)[C@H]2CC[C@]3(C)[C@@H]([C@H](C)CCCC(C)C)CC[C@H]3[C@H]12,Activity,[6],67.9%
